Data on 16 compounds can be found in PubChem BioAssay (NCI).

Common to all, as to test: inhibition of tumour cell growth, NCI panel, 48 h
Test [1] deals with COLO 205 colon.
For test [2], the system named is CCRF-CEM leukemia.
Test [3] has as its system NCI/ADR-RES ovarian.
For test [4], the system named is SK-MEL-5 melanoma.
For test [5], the system named is SK-MEL-2 melanoma.
Test [6] deals with M14 melanoma.
For test [7], the system named is NCI-H23 lung.
Test [8] concerns OVCAR-8 ovarian.
The test system of test [9] is IGROV1 ovarian.
Test [10] deals with MOLT-4 leukemia.
In test [11] the test system is HCC-2998 colon.
Test [12] deals with HOP-92 NSCLC.
Test [13] relates to SN12C renal.
Test [14] has as its system 786-0 renal.
The test system of test [15] is SF-268 CNS.
The subject of test [16] is KM12 colon.
Test [17] has as its system SNB-19 CNS.
The test system of test [18] is RPMI-8226 leukemia.
Test [19] concerns HL-60(TB) leukemia.

The structures appear in SMILES notation.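 The compound was tested at five concentrations on cells cultured in 96-well plates, with a 48-hour exposure period. At the TGI there is no net growth.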 Bounds are passed on as bounds.

Regarding `CCOC(=O)C1=CNC(C(=O)OCC)C1c1cccn1-c1ccccc1` (stereo not drawn), the TGI was 68.2 µM in test [1]; 77 µM in test [2]; 91.4 µM in test [3]; 31.5 µM in [4]; 37.2 µM in test [5]; greater than 100 µM in [6]. Also, the TGI in test [7] is greater than 100 µM; in test [8], greater than 100 µM; in test [9], greater than 100 µM; in test [10] it was 47.3 µM; in test [11] it was greater than 100 µM; in test [12], 56.8 µM. Also, the TGI was greater than 100 µM in [13], greater than 100 µM in [14], greater than 100 µM in test [15] and 98.7 µM in [16].

`C/C(=C\CNc1ncnc2c1ncn2CCC(=O)OC(C)(C)C)CO`: the TGI in test [1], in [2], in test [3], in [4], in test [17] and in [18] was greater than 100 µM each time. In addition, the TGI in [6], in test [7], in [8], in [9], in test [10] and in test [11] was greater than 100 µM in each case. For the same compound, the TGI in [12], in test [13], in test [14], in test [15], in test [16] and in test [19] was greater than 100 µM throughout.

For the compound `CN1c2ccccc2C(=O)NC12CCNCC2`, the TGI in [1], in [2], in [3], in test [4], in [17] and in test [18] was greater than 100 µM in each case. The TGI in test [6], in test [7], in test [8], in test [9], in [10] and in test [11] was greater than 100 µM in each case. Also, the TGI in test [12], in [14], in test [15], in test [16] and in test [19] was greater than 100 µM in each case.

As to `O=C1CC(C(OCc2ccccc2)C(OCc2ccccc2)C(OCc2ccccc2)C(COCc2ccccc2)OCc2ccccc2)CC(=O)N1` (stereo not drawn), the TGI in test [2], in [3], in test [4], in test [17], in test [18] and in [6] was greater than 100 µM each time. Besides, the TGI in [7], in [8], in [9], in test [10], in test [11] and in [12] was greater than 100 µM each time. Also, the TGI in test [13], in [14], in test [15] and in test [19] was greater than 100 µM in each case.

On to `CCCCOC(=O)NC(Nc1ccc(S(=O)(=O)Nc2ncccn2)cc1)(C(F)(F)F)C(F)(F)F`, for which the TGI in [1], in [2], in test [3], in test [4], in test [17] and in test [18] was greater than 100 µM throughout. Also, the TGI in test [6] was greater than 100 µM; in test [7], greater than 100 µM; in test [8], greater than 100 µM; in test [9] it was greater than 100 µM; in [10] it was greater than 100 µM; in [11], 65.9 µM. In addition, the TGI in test [12], in [13], in test [14], in test [15], in test [16] and in test [19] was greater than 100 µM throughout.

For `CSC1=C(C#N)C(=O)N(c2ccc(C)cc2)C(=O)C1C#N` (stereo not drawn), the TGI in test [1], in [2], in test [4], in test [17], in test [5] and in test [18] was greater than 100 µM each time. Moreover, the TGI is greater than 100 µM in [6]; greater than 100 µM in test [7]; greater than 100 µM in test [9]; greater than 100 µM in [10]; greater than 100 µM in [11]; 82 µM in [12]. Also, the TGI in test [13], in test [14], in [15], in test [16] and in test [19] was greater than 100 µM throughout.

With `CC(C)CC(NC=O)C(=O)NC(Cc1ccccc1)NC(=O)CNC(=O)C(C)NC(=O)C(N)Cc1ccc(O)cc1` (stereo not drawn), the TGI in [1], in test [3], in test [4], in test [17], in test [18] and in test [6] was greater than 100 µM each time. Besides, the TGI in test [7], in test [8], in [9], in test [10], in test [12] and in [13] was greater than 100 µM each time. For the same compound, the TGI in test [14], in [15], in [16] and in test [19] was greater than 100 µM each time.

Take `CCCCCCCc1cscc1-c1cscc1Br`: the TGI in [1] was 35.6 µM; in test [2] it was 40.3 µM; in [3] it was greater than 100 µM; in test [4], greater than 100 µM; in [17] it was greater than 100 µM; in test [5], 34.1 µM. Moreover, the TGI was 47 µM in test [18]; greater than 100 µM in test [6]; greater than 100 µM in test [7]; greater than 100 µM in test [8]; greater than 100 µM in test [9]; 42.3 µM in test [10]. Also, the TGI is 75.6 µM in [11]; greater than 100 µM in [13]; greater than 100 µM in [14]; greater than 100 µM in [15]; 80.7 µM in [16].

Consider `O=C1CCCC2=C1CC1=C(CCCC1=O)N2c1ccc([N+](=O)[O-])cc1`, for which the TGI in [2], in [3], in test [4], in [17], in test [18] and in test [6] was greater than 100 µM each time. Further, the TGI in test [7], in test [8], in test [9], in test [10], in test [11] and in [13] was greater than 100 µM each time. The TGI in [14], in [15], in test [16] and in test [19] was greater than 100 µM throughout.

`CCOC(=O)Nc1n[nH]nc1Cl`: the TGI in test [1], in [3], in test [4], in test [5], in test [18] and in test [6] was greater than 100 µM throughout. For the same compound, the TGI in [7], in test [8], in [9], in test [10], in test [11] and in test [13] was greater than 100 µM each time. Further, the TGI in [14], in test [15] and in test [16] was greater than 100 µM throughout.

`CC1CCC2CC1NC(=O)CCOCCC(=O)NC2(C)C` (stereo not drawn): the TGI in test [1], in test [2], in test [4], in [17], in test [6] and in [7] was greater than 100 µM each time. Moreover, the TGI in test [8], in test [9], in test [10], in [11], in test [12] and in [13] was greater than 100 µM in each case. For the same compound, the TGI in [14], in [15], in test [16] and in test [19] was greater than 100 µM in each case.

Regarding `O=C(Cc1ccccc1)N/N=C(/c1nc2ccc([N+](=O)[O-])cc2[nH]c1=O)C(O)c1ccc(C(O)/C(=N/NC(=O)Cc2ccccc2)c2nc3ccc([N+](=O)[O-])cc3[nH]c2=O)cc1` (stereo not drawn), the TGI in test [1], in test [2], in test [17], in [5], in [18] and in test [6] was greater than 100 µM in each case. The TGI in test [7], in test [8], in [9], in test [11], in test [12] and in test [13] was greater than 100 µM throughout. In addition, the TGI in [14], in test [15] and in test [19] was greater than 100 µM each time.

Take `CC(Cc1cccc2c1Nc1ccccc1S2)N(C)CCO` (stereo not drawn): the TGI in [1], in [2], in test [3], in [4], in [17] and in test [6] was greater than 100 µM each time. Further, the TGI in [7], in [8], in test [9], in test [10], in test [11] and in test [12] was greater than 100 µM throughout. Moreover, the TGI in test [13], in [14], in [15], in [16] and in test [19] was greater than 100 µM each time.

For the compound `CC(=O)OCC1OC(OC(C)=O)C(Nc2ncc(-c3ccc(C)cc3)s2)C(OC(C)=O)C1OC(C)=O` (stereo not drawn), the TGI in test [1] turned out to be 38 µM; in [2], 55 µM; in test [3], 76.8 µM; in test [4], 29.2 µM; in test [17], 52.9 µM; in test [5] it was 59.7 µM. Also, the TGI in [18] came out at 64.3 µM; in test [6], 33.4 µM; in test [7] it was 31.9 µM; in test [8] it was 69.9 µM; in [9], 36.4 µM; in [10], 49.2 µM. Further, the TGI in test [11] was found to be 57.7 µM; in test [13], 40.8 µM; in [14], 40.1 µM; in [15] it was 36.2 µM.

For `C(=N\NC1=NCCN1)/c1cccc2cc3ccncc3nc12`, the TGI in test [1] came out at 15.5 µM; in test [2], 3.8 µM; in [3] it was 25.2 µM; in test [4], 22.9 µM; in test [17], 21.4 µM; in test [18] it was 4.44 µM. For the same compound, the TGI in test [6] is 28.3 µM; in test [7] it was 25.5 µM; in test [8], 5.15 µM; in [9] it was 15.8 µM; in [10], 10.8 µM; in [11] it was 18.3 µM. The TGI is 6.4 µM in test [12]; 14.9 µM in [13]; 4.51 µM in [14]; 14.2 µM in [15]; 17.9 µM in test [16]; 2.76 µM in [19].

As to `c1ccc2cc(CNCCCCNCCCNCc3ccc4ccccc4c3)ccc2c1`, the TGI in test [2] is greater than 100 µM; in test [3], 3.47 µM; in [17] it was 2.8 µM; in test [5], 4.16 µM; in test [18] it was 0.712 µM; in [6], 3.69 µM. Also, the TGI in test [7] worked out at 3.43 µM; in test [8], 3.2 µM; in [9], 1.69 µM; in [11] it was 0.944 µM; in [12], 3.05 µM; in [13], 0.879 µM. Besides, the TGI in test [14] came to 0.323 µM; in test [15], 2.83 µM; in test [16] it was 0.97 µM.
